# Measured values as given in patent US20100003217A1, “Compounds and Pharmaceutical Compositions for the Treatment of Viral Infections” (priority 2008, published 2010).
# Tested on: Huh-7 cells
# Assay: Metabolic disposition of [^14C]-Compound 1 and [^14C]-2′-C-methyl guanosine in Huh-7 cells (incubation medium, cellular extracts, nucleotide levels)
# Assay type: in vitro ADME, human
# Settings: for 2′-C-methyl guanosine nucleotide levels in cellular extracts / Major metabolites observed in cellular extracts (% of total radioactivity) / AUC (area under the concentration-time curve) of Compound 7 levels: Huh7; for AUC (area under the concentration-time curve) of Compound 7 levels: 0-72 h
# Description: Huh-7 cells: Confluent monolayers of Huh-7 cells were dispersed using trypsin-EDTA, rinsed and pelleted by centrifugation at 1,000 rpm (Beckman, Model Allegra 6R). Cells were resuspended at 0.2, 0.3 and 0.4×10^6 cells/mL of medium (DMEM supplemented with 1% pyruvate, 10% FBS, 0.5% penicillin-streptomycin, 1% L-glutamine, 1% non-essential amino acids and 22 mM HEPES). Multi-well collagen I-coated plates (rat tail collagen type I; 6-well) were then seeded by addition of 2.0 mL of cell suspension to achieve final cell density of 0.4, 0.6 and 0.8×10^6 cells/well and placed in an incubator at 37° C. overnight to allow cells to attach and acclimatize to culture and the medium. Duplicate plates were prepared with the same cell density for cell number determination at each time point.
# Huh-7 incubations were conducted in a final volume of 2.0 mL Huh7 culture medium/well ([…]). Culture medium from overnight incubation of cells was removed and replaced with fresh culture medium, pre-warmed to 37° C. containing [^14C]-Compound 1 or [^14C]-2′-C-methyl guanosine as described above for primary hepatocytes. After 24, 48 and 72 hours, 0.5-1.0 mL of incubation medium was removed and stored at −20° C. until analysis (described below). The remaining medium was discarded and cell monolayers processed and extracted as described above.
# Preliminary identification of putative metabolites was conducted by comparing the retention time of observed metabolites in incubation medium and cellular extracts with retention times obtained with chemically synthesized standards using the chromatography conditions described below. Further identification of 2′-C-methyl guanosine nucleotides (mono-, di- and triphosphate) was carried out by incubating cellular extract samples with alkaline phosphatase (10 units for 60 min at 37° C.) and comparing the HPLC retention times of the resulting nucleosides with that of authentic 2′-C-methyl guanosine.
# Cellular extracts were prepared by centrifugation at 16,000 RCF using an Eppendorf microcentrifuge (Eppendorf, Model 5415D) for 10 min to remove cellular debris. An aliquot of 5-10 μL of the supernatant was added to 5 mL of EcoLite™ (MP, Irvine, Calif.) liquid scintillation cocktail and radioactivity measured by liquid scintillation counting (LSC) using a Beckman Coulter LS6500 multipurpose liquid scintillation counter (Beckman Instruments, Fullerton, Calif.). The remaining sample was then dried using a Labconco refrigerated centrivap concentrator (Labconco, Kansas City, Mo.). Dry extracts were reconstituted in 120 μL of HPLC-grade water and centrifuged at 16,000 RCF using an Eppendorf microcentrifuge for 10 min. Prior to HPLC analysis (described below), radioactivity of the concentrated extracts was measured by LSC using 5 μL aliquots. Extraction recovery was then determined by comparing total radioactivity in extracts before and after drying. The remaining extract was then analyzed by HPLC with online radioactivity detection using a Flow Scintillation Analyzer Radiomatic™ 515TR. Radioactivity in the separated components was quantified by integrating the peaks using Flo-One™ Software (Perkin Elmer Life Sciences). Samples with poor recovery (<85%) were re-analyzed when possible.
# Incubation medium samples were thawed at room temperature, vortexed and centrifuged at 16,000 RCF using an Eppendorf microcentrifuge. An aliquot of 10 μL was added to 5 mL of EcoLite™ (MP, Irvine, Calif.) liquid scintillation cocktail and radioactivity measured by LSC using a Beckman Coulter LS6500 multipurpose liquid scintillation counter (Beckman Instruments, Fullerton, Calif.). Samples (50-100 μL) were then analyzed by HPLC (described below) with online radioactivity detection using a Flow Scintillation Analyzer Radiomatic™ 515TR. Radioactivity in the separated components was quantified by integrating the peaks using Flo-One™ Software (Perkin Elmer Life Sciences). Samples with poor recovery (<85%) were re-analyzed when possible. […]
# [1] = 10 μM [^14C]-2′-C-methyl guanosine, 0 h, n = 1
# [2] = 10 μM [^14C]-2′-C-methyl guanosine, 24 h
# [3] = 10 μM [^14C]-2′-C-methyl guanosine, 24 h, n = 1
# [4] = 10 μM [^14C]-2′-C-methyl guanosine, 48 h
# [5] = 10 μM [^14C]-2′-C-methyl guanosine, 48 h, n = 1
# [6] = 10 μM [^14C]-2′-C-methyl guanosine, 72 h
# [7] = 10 μM [^14C]-2′-C-methyl guanosine, 72 h, n = 1
# [8] = 10 μM [^14C]-Compound 1, 0 h, replicate 1 of n = 2
# [9] = 10 μM [^14C]-Compound 1, 0 h, replicate 2 of n = 2
# [10] = 10 μM [^14C]-Compound 1, 24 h, first series
# [11] = 10 μM [^14C]-Compound 1, 24 h, replicate 1 of n = 2
# [12] = 10 μM [^14C]-Compound 1, 24 h, replicate 2 of n = 2
# [13] = 10 μM [^14C]-Compound 1, 24 h, second series
# [14] = 10 μM [^14C]-Compound 1, 48 h, first series
# [15] = 10 μM [^14C]-Compound 1, 48 h, replicate 1 of n = 2
# [16] = 10 μM [^14C]-Compound 1, 48 h, replicate 2 of n = 2
# [17] = 10 μM [^14C]-Compound 1, 48 h, second series
# [18] = 10 μM [^14C]-Compound 1, 72 h, first series
# [19] = 10 μM [^14C]-Compound 1, 72 h, replicate 1 of n = 2
# [20] = 10 μM [^14C]-Compound 1, 72 h, replicate 2 of n = 2
# [21] = 10 μM [^14C]-Compound 1, 72 h, second series
2′-C-methyl guanosine nucleotide levels in cellular extracts [1] [pmol/million cells],Major metabolites observed in cellular extracts (% of total radioactivity) [4],2′-C-methyl guanosine nucleotide levels in cellular extracts [8] [pmol/million cells],2′-C-methyl guanosine nucleotide levels in cellular extracts [9] [pmol/million cells],2′-C-methyl guanosine nucleotide levels in cellular extracts [11] [pmol/million cells],2′-C-methyl guanosine nucleotide levels in cellular extracts [12] [pmol/million cells],Major metabolites observed in cellular extracts (% of total radioactivity) [13],Major metabolites observed in cellular extracts (% of total radioactivity) [14],2′-C-methyl guanosine nucleotide levels in cellular extracts [15] [pmol/million cells],2′-C-methyl guanosine nucleotide levels in cellular extracts [16] [pmol/million cells],Major metabolites observed in cellular extracts (% of total radioactivity) [17],Major metabolites observed in cellular extracts (% of total radioactivity) [18],2′-C-methyl guanosine nucleotide levels in cellular extracts [19] [pmol/million cells],2′-C-methyl guanosine nucleotide levels in cellular extracts [20] [pmol/million cells],SMILES,Major metabolites observed in cellular extracts (% of total radioactivity) [2],2′-C-methyl guanosine nucleotide levels in cellular extracts [3],2′-C-methyl guanosine nucleotide levels in cellular extracts [5],Major metabolites observed in cellular extracts (% of total radioactivity) [6],2′-C-methyl guanosine nucleotide levels in cellular extracts [7],Major metabolites observed in cellular extracts (% of total radioactivity) [10],other results
0,3.56 % of total radioactivity,0,0,2.20,0,7.55 % of total radioactivity,6.14 % of total radioactivity,1.60,1.40,6.42 % of total radioactivity,6.86 % of total radioactivity,1.60,1.10,"C[C@@]1(O)[C@H](O)[C@@H](COP(=O)(O)OP(=O)(O)O)O[C@H]1n1cnc2c(=O)[nH]c(N)nc21 [Compound 6, [(2R)-2-methyl-β-D-ribofuranosyl]guanine 5′-diphosphate]",BLD (BLD = below limit of detection (30 DPM)),BLD (BLD = below limit of detection (0.02 pmol/million cells)),BLD (BLD = below limit of detection (0.02 pmol/million cells)),BLD (BLD = below limit of detection (30 DPM)),BLD (BLD = below limit of detection (0.02 pmol/million cells)),BLD (BLD = below limit of detection (30 DPM)),Major metabolites observed in cellular extracts (% of total radioactivity) [21]: 8.44 % of total radioactivity
0,7.18 % of total radioactivity,0,0,8.60,21.3,71.8 % of total radioactivity,71.5 % of total radioactivity,16.1,15.2,59.3 % of total radioactivity,72.1 % of total radioactivity,11.1,13.3,"C[C@@]1(O)[C@H](O)[C@@H](COP(=O)(O)OP(=O)(O)OP(=O)(O)O)O[C@H]1n1cnc2c(=O)[nH]c(N)nc21 [Compound 7, [(2R)-2-methyl-β-D-ribofuranosyl]guanine 5′-triphosphate]",10.5 % of total radioactivity,3.10 pmol/million cells,1.40 pmol/million cells,10.4 % of total radioactivity,1.60 pmol/million cells,59.7 % of total radioactivity,"AUC (area under the concentration-time curve) of Compound 7 levels (10 μM [^14C]-2′-C-methyl guanosine, n = 1): 120 pmol * hr/million cells; AUC (area under the concentration-time curve) of Compound 7 levels (10 μM [^14C]-Compound 1, replicate 1 of n = 2): 726 pmol * hr/million cells; AUC (area under the concentration-time curve) of Compound 7 levels (10 μM [^14C]-Compound 1, replicate 2 of n = 2): 1,020 pmol * hr/million cells; Major metabolites observed in cellular extracts (% of total radioactivity) [21]: 69.6 % of total radioactivity; Compound 7 AUC0-72h (Huh7 cells (n=1), [^14C]-2′-C-methyl guanosine): 120 pmol*h/million cells; Compound 7 AUC0-72h (Huh7 cells (n=2), [^14C]-Compound 1): 873 pmol*h/million cells; Compound 7 maximum concentration (Huh7 cells, [^14C]-2′-C-methyl guanosine, at 24 hours): 3 pmol/million cells; Maximum Compound 7 levels (Huh7 cells, [^14C]-Compound 1, at 48 hours): 16 pmol/million cells; % of total radioactivity in cellular extracts (Huh7 cells, up to 72 hours after [^14C]-Compound 1 incubation): 83-93%; Levels of Compound 7 in Huh7 cells lower than in human hepatocytes ([^14C]-Compound 1): 88%"
